17 molecules from PubChem BioAssay (NCI) can be followed below.

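Cells were grown in 96-well plates and exposed to each compound for 48 hours at five concentrations; endpoints were interpolated linearly between bracketing concentrations, or set to the highest concentration if not reached. At the GI50, growth is halved. TGI denotes the concentration required for complete inhibition of growth.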

Common to all, as to assay: DTP human tumour cell line panel, 48 h
The test system of experiment [1] is T-47D breast.
For experiment [2], the system named is SNB-75 CNS.
In experiment [3] the test system is UACC-257 melanoma.
The test system of experiment [4] is ACHN renal.
The test system of experiment [5] is KM20L2 colon.
Experiment [6] relates to NCI-H23 lung.
In experiment [7] the test system is PC-3 prostate.
The test system of experiment [8] is HL-60(TB) leukemia.
Experiment [9] relates to SNB-78 CNS.
Experiment [10] relates to NCI/ADR-RES ovarian.

Turning to `CCN(CC)CCC(=O)N1C/C(=C/c2ccccc2)C(=O)/C(=C\c2ccccc2)C1`, the TGI stood at 4.07 µM in experiment [1]; 12.5 µM in experiment [2]; 4.98 µM in [3]; 7.63 µM in [4]; 3.5 µM in experiment [5]; 3.91 µM in [6]. Moreover, the concentration for total growth inhibition (TGI) is 2.9 µM in experiment [7] and 1.62 µM in experiment [8].
For `CC(C)=CCC/C(C)=C/CC/C(C)=C/C1CCC(=O)C1(C)C` (stereo not given), the TGI stood at 81.9 µM in experiment [2]; 42.7 µM in experiment [3]; 30.1 µM in experiment [4]; 31.9 µM in experiment [5]; 41.1 µM in experiment [6]; 53.4 µM in experiment [9]. This molecule also registered a TGI in experiment [8] of 27 µM.
`Cc1nc(-n2nc(-c3ccccc3)cc2-c2ccccc2)sc1C(=O)/C=C/c1ccc(Cl)cc1`: the total growth inhibition concentration (TGI) in experiment [2] was greater than 100 µM; in [3], 49.1 µM; in experiment [4], greater than 100 µM; in experiment [5], 77.6 µM; in experiment [6], 34 µM; in [9], greater than 100 µM. Moreover, the total growth inhibition concentration (TGI) in experiment [8] came out at 33.1 µM.
For the molecule `[N-]=[N+]=NC1C2CC3CC(C2)CC1C3` (stereo not given), the concentration for total growth inhibition (TGI) in experiment [2], in [3], in experiment [4], in experiment [5], in experiment [6] and in experiment [9] was greater than 100 µM each time.
Consider `CCN(CC)/[N+]([O-])=N/OCC(C)O` (stereo not given), for which the TGI in experiment [2], in experiment [3], in experiment [4], in [6], in experiment [9] and in experiment [8] was greater than 100 µM throughout.
In the case of `N.N.NCCCCCN.O=C([O-])CC(=O)[O-].O=C([O-])CC(=O)[O-].[Pt+4].[Pt+4]`, the GI50 was greater than 100 µM in experiment [2]; greater than 100 µM in [3]; 66.6 µM in experiment [4]; greater than 100 µM in [5]; 98.3 µM in [6]; 39.6 µM in experiment [8]. Also, the TGI in [2], in experiment [3], in [4], in experiment [5], in [6] and in experiment [8] was greater than 100 µM each time.
Turning to `CCOc1ncnc2ccc(Cl)c(I)c12`, the concentration for total growth inhibition (TGI) in experiment [3], in experiment [4], in experiment [5], in experiment [6] and in experiment [8] was greater than 100 µM each time.
Consider `COC(=O)C1=C(O)c2cc3c(cc2[C@H](c2cc(OC)c(OC)c(OC)c2)C1)OCO3`, for which the TGI was greater than 100 µM in [2]; 95.1 µM in experiment [3]; greater than 100 µM in experiment [4]; greater than 100 µM in [5]; greater than 100 µM in experiment [6]; greater than 100 µM in [9]. In experiment [8], the concentration for total growth inhibition (TGI) worked out at 67.6 µM.
With `COc1cc(/C=C2\Cc3ccccc3C2=O)cc(OC)c1OC`, the TGI in [2], in [3], in [4], in [5], in experiment [6] and in experiment [9] was greater than 100 µM each time. Further, the total growth inhibition concentration (TGI) in [8] is greater than 100 µM.
As for `CC(=O)Oc1cc(Cl)c(OC(C)=O)c2c(OC(C)=O)c(C)c(O[Si](C)(C)C(C)(C)C)cc12`, the TGI in experiment [3] came out at 11.6 µM; in experiment [5], 32.1 µM; in experiment [6] it was 17.1 µM; in experiment [9], 9.82 µM; in experiment [8], 8.89 µM.
Consider `CN=C(N)NC`, for which the TGI in [2], in [3], in experiment [4], in experiment [5], in [6] and in experiment [9] was greater than 100 µM each time. Besides, the TGI in experiment [8] is greater than 100 µM.
With `O=C(COC(=O)c1cccc2c(=O)c3ccccc3[nH]c12)Nc1ccc(S(=O)(=O)Nc2ncccn2)cc1`, the concentration for total growth inhibition (TGI) in experiment [2] is 92.7 µM; in experiment [3], greater than 100 µM; in experiment [4], greater than 100 µM; in [5], greater than 100 µM; in experiment [6] it was greater than 100 µM; in [9], 74.4 µM. In experiment [8], this molecule displayed a TGI of 71.3 µM.
As for `Nc1nc(CC2(O)CCCCC2)cc(-c2ccccc2)n1`, the TGI in [2] was 98.1 µM; in experiment [3], greater than 78.1 µM; in [4], greater than 100 µM; in experiment [5], greater than 53.7 µM; in [6], greater than 66.4 µM; in experiment [9], greater than 100 µM. Further, in [8], the total growth inhibition concentration (TGI) is 47.9 µM.
Regarding `COc1ccc(/C=C2\CCc3ccccc3C2=O)cc1OC`, the concentration for total growth inhibition (TGI) in [2] was 76.9 µM; in [3], 43.1 µM; in experiment [4] it was greater than 100 µM; in experiment [5], greater than 100 µM; in [6] it was greater than 100 µM; in experiment [9] it was greater than 100 µM.
Take `CC(=O)OC1(C#N)CC2OC1C1N=NN(C(=O)OC(C)(C)C)C21` (stereo not given): the TGI in [2] is greater than 100 µM; in experiment [3], greater than 31.6 µM; in [4], greater than 100 µM; in experiment [5] it was greater than 100 µM; in experiment [9], greater than 77 µM; in experiment [8], 79.4 µM.
With `COc1ccccc1N1CCN(CCCOc2ccc(C(=O)/C=C3/C(=O)Nc4ccccc43)cc2)CC1`, the GI50 is 4.73 µM in [1]; 14.9 µM in experiment [2]; 9.79 µM in experiment [3]; 15.9 µM in experiment [4]; 6.19 µM in experiment [6]; 12 µM in experiment [7]. The GI50 in experiment [8] was 6.09 µM; in [10], 9.53 µM. Moreover, the concentration for total growth inhibition (TGI) is greater than 73 µM in experiment [1]; 43.9 µM in [2]; 35.5 µM in experiment [3]; greater than 77.6 µM in experiment [4]; 38.6 µM in experiment [6]; greater than 100 µM in [7]. Besides, the TGI in [8] is 27.2 µM; in experiment [10], 40.9 µM.
With `C#CCN(Cc1nc2cc(C(F)(F)F)ccc2nc1-c1ccccc1)c1ccc(F)cc1`, the GI50 in experiment [1] was 20.8 µM; in experiment [2] it was 90.3 µM; in [3], 18.7 µM; in experiment [4], 36 µM; in [6] it was greater than 100 µM; in [7], 32 µM. The GI50 in experiment [8] was 21.8 µM; in experiment [10], 29.1 µM. Besides, the total growth inhibition concentration (TGI) in experiment [1] is greater than 100 µM; in experiment [2], greater than 100 µM; in experiment [3] it was 63 µM; in experiment [4], greater than 100 µM; in experiment [6], greater than 100 µM; in [7] it was greater than 100 µM. Also, the TGI in [8] is greater than 100 µM; in experiment [10] it was 84.7 µM.

For orientation: TGI means the concentration at which net growth stops. Higher therefore signals less potent growth arrest. One may read the GI50 as the concentration that inhibits growth by half.
